In experiment [1] the test system is C3H heart allografts in presensitized BALB/c mice. As to the kind of experiment: Heart allograft survival, accelerated rejection in presensitized model (Example 4). The class given is in vivo, mouse. As to conditions: presensitized recipients. The text has this:
In these experiments, the presensitization was brought about by prior transplantation of a skin graft. In general, presensitization can occur not only as a result of having received an earlier allograft, but can also be caused by having received multiple blood transfusions or in women who have been pregnant. Besides such presensitization methods, allografts with an ABO mismatch will be rapidly attacked and rejected because of preformed antibodies to the ABO antigens unless steps are taken to prevent such an attack.
(§1) This model is designed to mimic presensitized transplantation in humans, especially in relation to accelerated humoral rejection. Recipient mice were split into eight groups of six to eight mice each. The treatments were as follow.
Group 3″ (BB5.1 alone)—mice were administered the anti-mouse complement monoclonal antibody BB5.1 at a dose of 40 mg/kg body weight delivered intraperitoneally on a daily basis beginning at day −1 and continuing until the endpoint.
Group 4″ (cyclophosphamide alone)—mice were administered cyclophosphamide intravenously at a dose of 40 mg/kg body weight on each of days 0 and 1.
Group 6″ (BB5.1 plus cyclophosphamide)—mice were administered BB5.1 intraperitoneally at a dose of 40 mg/kg body weight on a daily basis beginning at day −1 and continuing until the endpoint. […]

The test system of experiment [2] is C3H heart allografts in presensitized BALB/c recipients. In words: Immunoperoxidase staining of heart allografts in presensitized mouse recipients at necropsy. The class given is in vivo. Also on record: key: 0, negative; 1+, equivocal; 2+, weak; 3+, moderate; 4+, intense. The note with it: heart allograft, POD 3. The text has this: Immunohistochemistry Four micrometer sections were cut from tissue samples embedded in Tissue-Tek O.C.T gel (Optimum Cutting Temperature, Skura Finetek, Torrance, Calif.) mounted on gelatin-coated glass microscope slides and stained by a standard indirect avidin-biotin immunoperoxidase staining method using an Elite Vcctastain ABC kit (Vector Laboratories Inc., Burlingame, Calif.). Specimens were stained for CD4^+ and CD8^+ cells with biotin-conjugated rat anti-mouse CD4 mAb (clone YTS 191.1.2, Cedarlane Laboratories Ltd., Hornby, Ontario, Canada) and biotin-conjugated rat anti-mouse CD8 mAb (clone 53-6.7, Pharmingen, Franklin Lakes, N.J.), respectively. Intragraft monocyte/macrophage infiltration was detected by staining with biotin-conjugated rat anti-mouse Mac-1 mAb (Cedarlane Laboratories Ltd., Hornby, Ontario, Canada). Mouse IgG and IgM deposition in gratis was detected using biotin-conjugated goat anti-mouse-IgG and goat anti-mouse-IgM (Cedarlane). For identification of complement deposition, sections were serially incubated with goat anti-C3 or anti-C5 polyclonal Abs (Quidel, San Diego, Calif.), biotinylated rabbit anti-goat IgG (Vector Laboratories), and HRP-conjugated-streptavidin (Zymed Laboratories, South San Francisco, Calif.). Slides were washed with phosphate-buffered saline between steps, and examined under light microscopy. Negative controls were performed by omitting the primary antibodies. The immunostaining was scored in five high-power fields of each section, and five independent experiments were performed. The sections of immunoperoxidase staining were graded from 0 to 4+ according to the staining intensity: 0, negative; 1+, equivocal; 2+, weak staining; 3+, moderate staining; and 4+, very intensive staining.

Experiment [3] relates to C3H heart allografts in presensitized BALB/c mice. In words: Histological changes of heart allografts at necropsy (Example 4). The class given is in vivo, mouse. The note with it: endpoint, score 0 normal to 4 marked change.
Source text: as §1

Consider `O=P1(N(CCCl)CCCl)NCCCO1` (stereo not shown) [CyP, cyclophosphamide], for which the “Mean survival time” value in experiment [1] turned out to be 3.3 ± 0.5 days. For the same molecule, in experiment [2], the “C3 immunoperoxidase staining grade” value is listed as 3+, the “C5 immunoperoxidase staining grade” value is given as 3+, the “CD4 immunoperoxidase staining grade” value is 1+ and the “CD8 immunoperoxidase staining grade” value is recorded as 1+. Besides, in experiment [2], the “IgG immunoperoxidase staining grade” value is recorded as 3+, the “IgM immunoperoxidase staining grade” value is recorded as 1+ and the “Mac-1 immunoperoxidase staining grade” value is on record as 3+. Moreover, in experiment [3], the “Hemo (hemorrhage) median score” value is 2.0, the “Infar (infarction) median score” value was 4.0, the “Lymph (lymphocyte infiltration) median score” value came out at 0.0 and the “Throm (thrombosis) median score” value came to 3.0. Besides, in experiment [3], the “Vasc (vasculitis) median score” value is recorded as 2.0.

These data come from patent US20100135992A1, “Prolongation of Survival of an Allograft by Inhibiting Complement Activity” (Alexion Pharmaceuticals, Inc., priority 2006, published 2010).
